Test results published in ChEMBL document CHEMBL4495564, “Identification of inhibitors of SARS-Cov2 M-Pro enzymatic activity using a small molecule repurposing screen” (2020).
Several values for one entry are separate records, joined by “and”; a condition that tells them apart may be missing. Identical values can stand only once. Counter-ions that a name gives are not always drawn.

Columns and labels:
[1] = molecular target: Replicase polyprotein 1ab (Severe acute respiratory syndrome coronavirus 2, UniProt P0DTD1); experiment: biochemical; assay type: functional
[2] = molecular target: Replicase polyprotein 1ab (Middle East respiratory syndrome-related coronavirus (isolate UnitedKingdom/H123990006/2012) (Betacoronavirus England 1) (Humancoronavirus EMC), UniProt K9N7C7); experiment: biochemical; assay type: functional
Chain of Replicase polyprotein 1ab (Middle East respiratory syndrome-related coronavirus (isolate UnitedKingdom/H123990006/2012) (Betacoronavirus England 1) (Humancoronavirus EMC), UniProt K9N7C7) (K9N7C7 3248-3553 limits assumed): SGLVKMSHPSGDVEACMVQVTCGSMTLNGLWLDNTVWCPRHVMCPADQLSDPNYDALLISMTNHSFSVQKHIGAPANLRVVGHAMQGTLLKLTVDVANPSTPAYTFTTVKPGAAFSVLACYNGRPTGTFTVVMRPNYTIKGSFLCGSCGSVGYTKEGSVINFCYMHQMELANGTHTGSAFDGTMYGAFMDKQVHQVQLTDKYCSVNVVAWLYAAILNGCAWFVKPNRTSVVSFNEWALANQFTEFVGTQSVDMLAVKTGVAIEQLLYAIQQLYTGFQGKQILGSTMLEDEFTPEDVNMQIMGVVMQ

[3] = molecular target: Replicase polyprotein 1ab (Middle East respiratory syndrome-related coronavirus (isolate UnitedKingdom/H123990006/2012) (Betacoronavirus England 1) (Humancoronavirus EMC)) (UniProt K9N7C7); conditions: at 10 µM
[4] = molecular target: Chymotrypsin (Homo sapiens) (UniProt Q99895+P17538+P40313+Q6GPI1); experiment: Chymotrypsin inhibition percentage at 10 µM by FRET kind of response from peptide substrate; assay type: functional

Compound: C/N=c1/nc(-c2ccccc2)n(-c2ccccc2)s1
- IC50 [1]: 980 nM
- IC50 [2]: > 10 µM
- inhibition [3]: 44%

Compound: Nc1nc(S)c2ncn(C3OC(CO)C(O)C3O)c2n1 (stereo unspecified)
- IC50 [1]: 1080 nM
- inhibition [4]: 7.56%

Compound: O=C(O)[C@@H](S)[C@@H](S)C(=O)O
- IC50 [1]: 1720 nM
- IC50 [2]: > 10 µM
- inhibition [3]: 0%

Compound: CN1CCN(C2=C(Cl)C(=O)N(c3ccc(Cl)c(Cl)c3)C2=O)CC1
- IC50 [1]: < 1230 nM
- inhibition [4]: 9.67%

Compound: CCOc1cc(C(Nc2cc(C)ccn2)c2ccc3cccnc3c2O)ccc1OC (stereo unspecified)
- IC50 [1]: < 270 nM
- inhibition [4]: 13.3%

Compound: Cc1ccc(-n2sc(=O)n(Cc3ccc(F)cc3)c2=O)cc1
- IC50 [1]: 230 nM
- IC50 [2]: > 10 µM
- inhibition [4]: 24.5%
- inhibition [3]: 35%

Compound: Sc1nnnn1-c1ccccc1
- IC50 [1]: 2360 nM
- inhibition [4]: 4.48%

Compound: CC(C)(C)OC(=O)NCCc1nnc(S(=O)(=O)Cc2ccc(Cl)cc2Cl)o1
- IC50 [1]: 4220 nM
- inhibition [4]: 103%

Compound: Sc1nnc(Nc2ccccc2)s1
- IC50 [1]: 390 nM
- inhibition [4]: 4.67%

Compound: CN1CCN(C(=O)c2ccc(-c3ccc4c(C=O)c(O)ccc4c3)s2)CC1
- IC50 [1]: 1330 nM
- inhibition [4]: 9.67%

Compound: Cc1ccc(S(=O)(=O)/C=C/C#N)cc1
- IC50 [1]: 820 nM
- IC50 [2]: > 10 µM
- inhibition [3]: 17%

Compound: C/C=C1\C(OC2OC(CO)C(O)C(O)C2O)OC=C(C(=O)OC)C1CC(=O)OCCc1ccc(O)c(O)c1 (stereo unspecified)
- IC50 [1]: 3380 nM
- IC50 [2]: > 10 µM
- inhibition [3]: 0%

Compound: Oc1cc(CNC(=S)/C=C/c2cc(O)c(O)c(Br)c2)cc(O)c1O
- IC50 [1]: 480 nM
- IC50 [2]: > 10 µM
- inhibition [3]: 20%

Compound: O=C1C=Cc2cc(Br)ccc2C1=O
- IC50 [1]: 160 nM
- IC50 [2]: > 10 µM
- inhibition [4]: 8.47%
- inhibition [3]: 9% and 0%

Compound: CCOC(=O)c1c(N)sc(-c2ccccc2)c1C
- IC50 [1]: 3190 nM
- inhibition [4]: 5.82%

Compound: COc1cccc2c1C(=O)c1c(O)c3c(c(O)c1C2=O)C[C@@](O)(/C(CO)=N/NC(=O)CCCCCN1C(=O)C=CC1=O)C[C@@H]3O[C@H]1C[C@H](N)[C@H](O)[C@H](C)O1 [ALDOXORUBICIN]
- IC50 [1]: 580 nM
- IC50 [2]: > 10 µM
- inhibition [3]: 1%

Compound: C[C@@](Cc1ccc(O)c(O)c1)(NN)C(=O)O [CARBIDOPA ANHYDROUS]
- IC50 [1]: 3550 nM
- IC50 [2]: > 10 µM
- inhibition [3]: 0%

Compound: O=C1C(Cl)=C(Cl)C(=O)C(Cl)=C1Cl [CHLORANIL]
- IC50 [1]: < 20 nM
- inhibition [4]: 10.1%

Compound: CC(C)Nc1cccnc1N1CCN(C(=O)c2cc3cc(NS(C)(=O)=O)ccc3[nH]2)CC1 [DELAVIRDINE MESYLATE]
- IC50 [1]: 3990 nM
- IC50 [2]: > 10 µM
- inhibition [4]: 9.13%
- inhibition [3]: 34%

Compound: Cc1c(OCC(F)(F)F)ccnc1C[S+]([O-])c1nc2ccccc2[nH]1 (stereo unspecified) [LANSOPRAZOLE]
- IC50 [1]: 390 nM
- IC50 [2]: > 10 µM
- inhibition [4]: 6.43% and 5.66%
- inhibition [3]: 47%

Compound: Cc1c(-c2cnccn2)ssc1=S [OLTIPRAZ]
- IC50 [1]: 620 nM
- IC50 [2]: > 10 µM
- inhibition [4]: 9.89%
- inhibition [3]: 10% and 0%

Compound: Nc1ccc2cc3ccc(N)cc3nc2c1 [PROFLAVINE]
- IC50 [1]: 360 nM
- IC50 [2]: > 10 µM
- inhibition [4]: 16.3%

Compound: O=c1c(O)cccc2cc(O)c(O)c(O)c12 [PURPUROGALLIN]
- IC50 [1]: 4580 nM
- inhibition [4]: 9.33%

Compound: [O-][n+]1ccccc1S [PYRITHIONE ZINC]
- IC50 [1]: 2460 nM
- IC50 ([2]; tested as the Zn salt or complex): > 10 µM

Compound: S=C(S)N1CCCC1 [PYRROLIDINE DITHIOCARBAMIC ACID, AMMONIUM SALT]
- IC50 [1]: 210 nM
- IC50 [2]: > 10 µM
- inhibition [3]: 42%

Compound: CC(CN1CC(=O)NC(=O)C1)N1CC(=O)NC(=O)C1 (stereo unspecified) [RAZOXANE]
- IC50 [1]: 3190 nM
- IC50 [2]: > 10 µM
- inhibition [4]: -0.92%
- inhibition [3]: 7%

Compound: Cc1ccc(S(=O)(=O)N[C@@H](Cc2ccccc2)C(=O)CCl)cc1 [TPCK]
- IC50 [1]: 1370 nM
- inhibition [4]: 39.6%

Compound: CC(C)c1cc(CNc2nc(Nc3cc(C4CC4)[nH]n3)cc(N3CCN(C)CC3)n2)on1 [XL-228]
- IC50 [1]: 1490 nM
- IC50 [2]: > 10 µM
- inhibition [3]: 9%

Compound: ACRIFLAVINE HYDROCHLORIDE
- IC50 [1]: 1930 nM
- IC50 [2]: 10 µM

Compound: AUROTHIOGLUCOSE
- IC50 [1]: 1740 nM
- IC50 [2]: 10 µM

Compound: MERBROMIN
- IC50 [1]: 240 nM
- IC50 [2]: > 10 µM

Compound: PHENYLMERCURIC ACETATE
- IC50 [1]: 10 nM
- IC50 [2]: > 10 µM
